Tests used:
Pseudomonas aeruginosa = assay: Minimum inhibitory concentration, series dilution test; type: cell-based
Description: (§1) The minimum inhibitory concentration (MIC) of eugenol acetate was determined in the series dilution test against various bacteria.

Porphyromonas gingivalis = assay: as above; type: cell-based
Description: as §1

Fusobacterium nucleatum = assay: as above; type: cell-based
Description: as §1

Streptococcus mutans = assay: as above; type: cell-based
Description: as §1

Escherichia coli = assay: as above; type: cell-based
Description: as §1

Staphylococcus aureus = assay: as above; type: cell-based
Description: as §1

Prevotella intermedia = assay: as above; type: cell-based
Description: as §1

[1] = test system: liquid medium inoculated with fresh morning saliva; assay: In vitro test for reduction of bad breath (inoculated medium smelled by a panel of testers)
[2] = test system: total number of germs in the oral saliva samples; assay: Total number of germs in oral saliva samples; type: cell-based; details: 1,000 ppm

- MIC (Pseudomonas aeruginosa): > 1000 µg/mL
- MIC (Porphyromonas gingivalis): 1000 µg/mL
- MIC (Fusobacterium nucleatum): 500 µg/mL
- MIC (Streptococcus mutans): > 1000 µg/mL
- MIC (Escherichia coli): > 1000 µg/mL
- MIC (Staphylococcus aureus): > 1000 µg/mL
- MIC (Prevotella intermedia): 500 µg/mL
SMILES: C=CCc1ccc(OC(C)=O)c(OC)c1 [eugenol acetate, 4-allyl-2-methoxyphenyl acetate]
- Type (Pseudomonas aeruginosa): no action up to 1,000 ppm
- Type (Fusobacterium nucleatum; 500 ppm): bactericidal action
- Type (Streptococcus mutans): no action up to 1,000 ppm
- Type (Escherichia coli): no action up to 1,000 ppm
- Type (Staphylococcus aureus): no action up to 1,000 ppm
- Type (Prevotella intermedia; 500 ppm): bactericidal action
- smell after the incubation time ([1]; 0.01% added to inoculated samples, 37 °C for some days): no smell
- smell at sensory evaluation ([1]; 0.05% added to the inoculated medium only one hour before the sensory evaluation): unpleasant mixed smell of bad breath and a weak eugenol acetate note
- minimum active concentration ([1]; inoculated samples, no smell after incubation): 0.01%
- smell after the incubation time ([1]; significantly lower concentrations than 0.01%): a changed intrinsic smell or a mixed smell was perceptible in some cases
- reduction in respect of the total number of germs [2]: no significant reduction
